Target: T1, ApoE (Macaca mulatta, UniProt Q28502)
T1 construct: from tissue; host or cells: rhesus serum
Experiment: In vitro ApoE binding assay (anti-PEG capture, ApoE ELISA, stem-loop RT-PCR)
Conditions: LNP 4 ug/mL in 90% rhesus serum, 37° C., 20 minutes; estimate of 500 siRNA per LNP
Experimental: LNPs are incubated at 37° C. in 90% rhesus serum at a final LNP concentration of 4 ug/mL. Incubation is for 20 minutes with orbital rotation. After incubation, the samples are diluted 1:20 in PBS and 100 uL of each diluted sample is aliquoted to wells of an anti-PEG antibody coated 96-well plate (Life Diagnostics Cat. No. P-0001PL. After incubation at room temperature for 1 hour, the plate is washed 5× with 300 uL PBS. After washing, 50 uL of 0.2% Triton X-100 is added to each well and the plate incubated at 37° C. for 10 minutes, followed by shaking on a plate shaker for 1 minute at 750 rpm. Samples are frozen prior to performing the ApoE ELISA and stem loop PCR analysis of samples.
An ApoE ELISA assay is performed to quantitate ApoE bound to the LNPs after incubation in rhesus serum. Anti-ApoE antibody (Milipore, Cat No. AB947) is diluted 1:1000 in PBS and 100 uL of diluted antibody is added to each well of a polystyrene high binding plate. The plate with antibody is incubated overnight at 4° C., after which the plate is washed 2× with 200 uL of PBS. Next, 200 uL of buffer containing 1% BSA and 0.05% Tween-20 in PBS (Incubation Buffer) is added to each well followed by incubation at room temperature for 1 hour. Plates are washed 5× with PBS containing 0.05% Tween-20. Frozen Triton lysis test samples are thawed and diluted 1:6 with incubation buffer and 100 uL of test sample is aliquoted to wells of the ApoE antibody plate. Incubation is for 1 hour at room temperature followed by a 5× wash with PBS containing 0.05% Tween-20. After washing, 100 uL of biotinylated anti-ApoE antibody (Mabtech, Cat. ANo. E887-biotin), diluted 1:500 in incubation buffer, is added to each well and incubated for 1 hour at room temperature, followed by a 5× wash with 0.05% Tween-20 in PBS. 100 uL per well, of Streptavidin-HPR (Thermo, Cat. No. TS-125-HR), is then added and incubated for 1 hour at room temperature. After washing 5× with 0.05% Tween-20 in PBS, 100 uL of TMB Substrate (Thermo, Cat. No. 34028) is added to each well, followed by incubation at room temperature for 20 minutes in the dark. The calorimetric reaction is slopped with 100 uL of TMB Stop Solution (KPL, Cat. No. 50-85-04) and absorbance at 450 nm is determined. An ApoE standard curve is prepared by diluting rhesus Recombinant ApoE in incubation buffer with 0.03% Triton X-100 with concentrations ranging from 100 ng/mL to 0.78 ng/mL. ApoE standards are evaluated in the ELISA in parallel to the test samples. A rhesus serum only (no LNP) control is utilized to obtain a background subtraction for non-LNP dependent ApoE signal in the ELISA.
To normalize to the ApoE bound to the amount of LNP bound to the anti-PEG antibody plate, the amount of siRNA retained in the anti-PEG antibody well is quantitated by stem-loop PCR and related to the number of siRNAs encapsulated per LNP, to give an approximate measure of total LNP particles bound per well.
The standard curve is prepared using the molecular weight of the siRNA (13693 g/mol for ApoB 17063) to calculate the copy number. The high standard should contain 10^11 copies per 3 μl. A 10-fold serial dilution is performed across a row of an assay plate until the lowest standard contains 10^2 copies per 3 μl. Dilute 0.2% Triton X-100 1:80 in water and pipette 20 uL of the diluted Triton X-100 into 10 wells of a 96 well plate. 30 uL of the serial diluted standard curve and mix are added to each well of the plate. 10 uL of the spiked standard curve is used in the reverse transcription reaction.
Triton lysates from the PEG antibody plate capture are diluted 1 to 2000 in nuclease free water. 10 uL of ‘RT-Primer Mix’ (Applied Biosystem's TaqMan MicroRNA Reverse Transcription Kit Cat. No. 4366596) is added to each well of a 96-well Micro-Amp QPCR plate (ABI Cat #N801-0560).
[…] of each test sample (diluted 1 to 2000) or spiked standard curve (above) are aliquoted into the 96-well plate. […]

T1 sequence (Q28502 19-295): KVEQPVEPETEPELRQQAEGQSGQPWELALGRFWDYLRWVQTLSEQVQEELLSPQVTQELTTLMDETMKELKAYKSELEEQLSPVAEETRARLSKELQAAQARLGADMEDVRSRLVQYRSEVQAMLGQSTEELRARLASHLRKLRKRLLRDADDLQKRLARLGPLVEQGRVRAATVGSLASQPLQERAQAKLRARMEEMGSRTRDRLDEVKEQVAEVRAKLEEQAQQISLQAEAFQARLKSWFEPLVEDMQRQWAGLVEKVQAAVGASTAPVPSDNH

Row | SMILES | ApoE Molecules/LNP [Molecules/LNP]
1 | CCCCC/C=C\C/C=C\CCCCCCCCCC(CCCCCCCCC)CCN(C)C (centres unmarked) [Compound 32, (13Z,16Z)—N,N-dimethyl-3-nonyldocosa-13,16-dien-1-amine] | 12.8
2 | CCCCCCCCCC(CCCCCCCC1CC1CCCCCCCC)N(C)C [Compound 33, N,N-dimethyl-1-[(1S,2R)-2-octylcyclopropyl]hepladecan-8-amine] | 18.1

— patent publication US11413348B2, “Low molecular weight cationic lipids for oligonucleotide delivery” (SIRNA THERAPEUTICS, INC., priority 2010, dated 2022)
